Results from patent publication US10918734B2 (Immunomedics, Inc., priority 2017, dated 2021).
Like-named read-outs stand apart in the source and are kept apart here.

Legend:
[1] = system: human SCLC tumors (DMS 53); type: in vivo, C.B.-17 SCID mice
Method: Female C.B.-17 SCID mice were injected s.c. with a tumor suspension made from of DMS 53 stock tumors (20% w/v) plus cells harvested from tissue culture (5×10^6 cells per mouse) mixed 1:1 with matrigel. […] All were administered twice weekly for 4 weeks. Two groups received only chemotherapy of either cisplatinum (5 mg/kg i.p.) or carboplatin (50 mg/kg i.p.) weekly for 4 weeks. […] A final untreated control group of mice received saline (100 μL i.p. twice weekly×4 wks). Tumors were measured and mice weighed twice weekly.

p53 = p53 expression in tumor cells; type: cell-based, human; conditions: BxPC-3 and Calu-3
From the text: (§1) SN-38 is known to activate several signaling pathways in cells, leading to apoptosis (e.g., Cusack et al., 2001, Cancer Res 61:3535-40; Liu et al. 2009, Cancer Lett 274:47-53; Lagadec et al., 2008, Br J Cancer 98:335-44). Our initial studies examined the expression of 2 proteins involved in early signaling events (p21^Waf1/Cip1 and p53) and 1 late apoptotic event [cleavage of poly-ADP-ribose polymerase (PARP)] in vitro (not shown).
(§2) In addition, p53 expression in cells exposed to the ADC was higher in both cell lines compared to SN-38 (not shown). […] In terms of later apoptotic events, cleavage of PARP was evident in both cell lines when incubated with either SN-38 or the conjugate (not shown). […] The higher degree of cleavage with free SN-38 over the ADC was consistent with the cytotoxicity findings.

[2] = system: poly-ADP-ribose polymerase (PARP); experiment: Cleavage of PARP in tumor cells; type: cell-based, human; conditions: BxPC-3 and Calu-3
From the text: as §1, §2

Calu-3 tumors = experiment: Calu-3 xenograft therapy; type: in vivo, nude mice; conditions: 0.4 mg/kg SN-38; tumor-free until day 147
Capan-1 tumors = experiment: Capan-1 xenograft therapy; type: in vivo, nude mice; conditions: day 140; 0.2 mg/kg SN-38 twice weekly x 4 weeks
[3] = system: SK-MES-1 squamous cell lung carcinoma; experiment: SK-MES-1 antitumor effect (FIG. 18); type: in vivo
MDA-MB-231 tumors = experiment: MDA-MB-231 parental tumor therapy; type: in vivo, mice
Method: (§3) Rad51 and DNA-breaks (g-H2A.X) were determined by Western blot. […] Tumors were measured and mice weighed twice weekly. Study survival endpoint was tumor progression to >1.0 cm^3.

[4] = system: SK-MES-1 human squamous cell lung tumors; experiment: SK-MES-1 xenograft therapy; set-up: species or system nude mice; conditions: mouse, in vivo
C39 tumors = experiment: MDA-MB-231 Trop-2 transfectant C39 tumor therapy; type: in vivo, mice; conditions: for median survival time (MST): IMMU-132 0.5 mg twice wkly × 4, irinotecan 40 mg/kg q2dx5
Method: as §3

C13 tumors = experiment: MDA-MB-231 Trop-2 transfectant C13 tumor therapy; type: in vivo, mice; conditions: for median survival time (MST): IMMU-132 0.5 mg twice wkly × 4, irinotecan 40 mg/kg q2dx5
Method: as §3

[5] = plasma esterase; cited from earlier work
Rad51 [6] = experiment: Rad51 expression in tumors taken from treated mice; type: in vivo; conditions: parental, C13 and C39 tumors
p21^Waf1/Cip1 = experiment: p21Waf1/Cip1 expression in tumor cells; type: cell-based, human
From the text: as §1

[7] = mouse, in vivo
[8] = Tolerability in Cynomolgus monkeys; type: in vivo, Cynomolgus monkeys (Macaca fascicularis)
[9] = system: BxPC3 human pancreatic carcinoma; conditions: FIG. 2
[10] = human, in vivo
[11] = Tolerability in Swiss-Webster mice; conditions: normal mice; 1,500 mg/kg of the conjugate
[12] = system: diverse metastatic cancers; experiment: Phase I/II clinical trial of IMMU-132 (Example 8): response and TTP; type: in vivo, human
advanced GI cancers = experiment: Phase I/II trial of IMMU-132 in advanced GI cancers: best response by RECIST, TTP; type: in vivo, human
Method: Patients with metastatic cancers were enrolled after failing standard therapy, starting at a dose of 8.0 mg/kg given on days 1 and 8 of a 3-week cycle.
Sixty patients with advanced GI cancers were enrolled in a Phase I/II trial.

[13] = human, in vivo; remark: listed apart in the source
Rad51 [14] = experiment: Rad51 levels by Western blot in cells exposed to IMMU-132; type: cell-based, human; conditions: for increase in Rad51 level: MDA-MB-231, 24-h exposure
Method: as §3

HCC1806 TNBC = HCC1806 TNBC antitumor effect (FIG. 17); type: in vivo
[15] = day 73, IMMU-132 250 μg (alone twice weekly, in combination weekly)

N.N.O=C([O-])C1(C(=O)[O-])CCC1.[Pt+2] [carboplatin, reference compound]
mean tumor volume ([1]; day 41 (therapy day 14)): 0.602±0.224 cm^3

CCc1c2c(nc3ccc(O)cc13)-c1cc3c(c(=O)n1C2)COC(=O)[C@]3(O)CC [SN-38, reference compound]
exposure time at which upregulation of p53 was evident (p53): 48 h
cleavage of PARP [2]: evident

hRS7-CL2-SN-38
time within which all mice were cured (Calu-3 tumors): ≤ 28 days
mice tumor-free at end of study (Capan-1 tumors): 40%

N.N.[Cl][Pt][Cl] [cisplatinum, reference compound]
mean tumor volume [1, 15]: 0.758±0.240 cm^3

CCc1c2c(nc3ccc(OC(=O)N4CCC(N5CCCCC5)CC4)cc13)-c1cc3c(c(=O)n1C2)COC(=O)[C@]3(O)CC [irinotecan, reference compound]
antitumor effects [3]: significant antitumor effects
median survival time (MDA-MB-231 tumors; 40 mg/kg q2dx5): 26.5 days
antitumor effect vs specific hRS7-SN-38 conjugate [4]: provided the same antitumor effects
median survival time (MST) (C39 tumors): 28 days
median survival time (C13 tumors; 40 mg/kg q2dx5): 35 days
median survival time (MST) (C13 tumors): 35 days
conversion rate to SN-38 [5]: greater than 50%
Rad51 in tumors from treated mice (Rad51 [6]): up-regulation of Rad51 within 24 h

hA20-CL2A-SN-38 [reference compound]
mice tumor-free at end of study (Capan-1 tumors): 20%
antitumor effect vs specific hRS7-SN-38 conjugate [4]: provided the same antitumor effects

hRS7 IgG
effect on p21Waf1/Cip1 expression (p21^Waf1/Cip1): no appreciable effect
exposure time at which upregulation of p53 was evident (p53): 48 h

hRS7-CL2A-SN-38
increase in p21Waf1/Cip1 expression over free SN-38 (p21^Waf1/Cip1; Calu-3): more than 2 fold
exposure time at which upregulation of p53 was evident (p53): ≤ 24 h
mice tumor-free at end of study (Capan-1 tumors): 50%
cleavage of PARP [2]: evident
AST level [7]: > 298 U/L
histology at termination [7]: no histologic evidence of tissue damage
glucose levels (slightly elevated) ([7]; 8 mg/kg): 273 to 320 mg/dL
mice with slightly elevated glucose levels ([7]; 8 mg/kg): 5 of 7
blood count data ([8]; 2×0.96 mg SN-38/kg, transient decreases): values did not fall below normal ranges
human equivalent dose of MTD (2 doses) ([8]; cynomolgus monkey, in vivo): 0.3-0.6 mg/kg SN-38
therapeutic efficacy vs control treatments [9]: better therapeutic efficacy than control treatments

hRS7-SN-38
SN-38 released daily [10]: 50%
time within which the conjugate cleared from the serum [10]: ≤ 3 days
cumulative dose over 1 week without acute toxicity [11]: 24 mg/kg SN-38
cumulative human equivalent dose tolerated by monkeys ([8]; cynomolgus monkey, in vivo): 22 mg/m^2
dose tolerated by monkeys ([8]; only minor, reversible toxicities): 24 mg SN-38 equivalents/kg
reduction in target lesions at first CT assessment ([12]; person with CRC, starting dose 8 mg/kg): 37%

IMMU-132
antitumor effects [3]: significant antitumor effects
gastric cancer patients with SD (advanced GI cancers; 3 with CT assessment): 3
esophageal cancer patients with PR (advanced GI cancers; 8 with CT assessment): 1
esophageal cancer patients with SD (advanced GI cancers; 8 with CT assessment): 4
pancreatic cancer patients with SD as best response (advanced GI cancers; 15 treated (5 at 8, 7 at 10, 3 at 12 mg/kg)): 7
CRC patients with SD as best response by RECIST (advanced GI cancers; 29 CRC patients): 14
CRC patients with PR as best response by RECIST (advanced GI cancers; 29 CRC patients (9 at 10 mg/kg, 20 at 8 mg/kg)): 1
extent of the PR (advanced GI cancers; CRC): ~65%
median survival time (MST) (MDA-MB-231 tumors; 0.5 mg twice wkly × 4, endpoint tumor >1.0 cm^3): 21 days
effect on tumor growth (MDA-MB-231 tumors; FIG. 19): no effect on tumor growth
effect on survival (MDA-MB-231 tumors; FIG. 22): no antitumor effect on survival
efficacy (MDA-MB-231 tumors; past studies, FIG. 16): neither IMMU-132 nor irinotecan demonstrated any efficacy
Abdominal pain, Grade 3 [13]: 0
Abdominal pain, Grade 4 [13]: 0
Anemia, Grade 3 [13]: 2 (4%)
Anemia, Grade 4 [13]: 0
Deep vein thrombosis, Grade 3 [13]: 1 (2%)
Deep vein thrombosis, Grade 4 [13]: 0
Diarrhea, Grade 3 [13]: 4 (9%)
Diarrhea, Grade 4 [13]: 0
Dysgeusia, Grade 3 [13]: 0
Dysgeusia, Grade 4 [13]: 0
Fatigue, Grade 3 [13]: 4 (9%)
Fatigue, Grade 4 [13]: 0
Hypokalemia, Grade 3 [13]: 1 (2%)
Hypokalemia, Grade 4 [13]: 0
Nausea, Grade 3 [13]: 0
Nausea, Grade 4 [13]: 0
Neutropenia, Grade 3 [13]: 11 (24%)
Neutropenia, Grade 4 [13]: 2 (4%)
Pyrexia, Grade 3 [13]: 0
Pyrexia, Grade 4 [13]: 0
Vomiting, Grade 3 [13]: 1 (2%)
Vomiting, Grade 4 [13]: 0
WBC Decrease, Grade 3 [13]: 1 (2%)
WBC Decrease, Grade 4 [13]: 0
neutropenia ≥G3 [13]: 28%
antitumor effect compared to saline control ([1]; 500, 250 or 100 μg i.p. twice weekly for 4 weeks): significant antitumor effect
mean tumor volume [1, 15]: 0.745±0.162 cm^3
effect on tumor growth (C39 tumors; FIG. 21): effective to inhibit tumor growth
median survival time (MST) (C39 tumors): > 70 days
effect on tumor growth (C13 tumors; FIG. 20): effective to inhibit tumor growth
median survival time (MST) (C13 tumors): > 70 days
CT-assessable PDC patients with SD ([12]; 8 of 13): 62%
patients with disease response ([12]; 48 patients (excluding PDC)): 79%
Rad51 up-regulation above untreated background (Rad51 [14]; C13 and C39, 24 h): ~2.5 fold
increase in Rad51 level (Rad51 [14]; 25 nM SN-38-equivalents): greater than 2 fold
increase in Rad51 level (Rad51 [14]; 100 nM): 4 fold
increase in Rad51 levels (Rad51 [14]; MDA-MB-231 cells, 24 h): > 2 fold
change in Rad51 (Rad51 [14]; SK-MES-1, HCC1806): Neither SK-MES-1 nor HCC1806 cells demonstrated any increases in Rad51
effect on Rad51 levels (Rad51 [14]; SK-MES-1 or HCC1806): no effect
antitumor effects (HCC1806 TNBC): significant antitumor effects
Rad51 in tumors from treated mice (Rad51 [6]): up-regulation of Rad51 within 24 h
